{"source": "patent US20260285850A1", "about": "“SUBSTITUTED OXAZOLIDINONES AND IMIDAZOLINONES AS HERBICIDES” (FMC CORPORATION, priority 2023, published 2026)", "type_in_all_cases": "in vivo", "key": {"[1]": {"tested_on": "horseweed (Erigeron canadensis)", "experiment": "Test A postemergence application, visual injury rating 0-100", "details": "10 days", "outline": "(§1)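 Plants in a loam and sand soil blend were treated with each test chemical, in a non-phytotoxic solvent system including surfactant, either sprayed on seeded soil before emergence or applied after emergence at the one- to two-leaf stage. Ten days later in the greenhouse, plants were compared with untreated controls and visually rated from 0 (no effect) to 100 (complete control).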"}, "[2]": {"tested_on": "palmer (palmer amaranth, palmer pigweed, Amaranthus palmeri)", "experiment": "Test A postemergence application, visual injury rating 0-100", "details": "10 days", "outline": "as §1"}, "[3]": {"tested_on": "wheat (Triticum aestivum)", "experiment": "Test A postemergence application, visual injury rating 0-100", "details": "10 days", "outline": "as §1"}, "[4]": {"tested_on": "green foxtail (Setaria viridis)", "experiment": "Test A postemergence application, visual injury rating 0-100", "details": "10 days", "outline": "as §1"}, "[5]": {"tested_on": "oat, wild (wild oat, Avena fatua)", "experiment": "Test A postemergence application, visual injury rating 0-100", "details": "10 days", "outline": "as §1"}, "[6]": {"tested_on": "galium (catchweed bedstraw, Galium aparine)", "experiment": "Test A postemergence application, visual injury rating 0-100", "details": "10 days", "outline": "as §1"}, "kochia (Bassia scoparia) [7]": {"tested_on": "kochia (Bassia scoparia)", "experiment": "Test A postemergence application, visual injury rating 0-100", "details": "10 days", "outline": "as §1"}, "[8]": {"tested_on": "blackgrass (Alopecurus myosuroides)", "experiment": "Test A postemergence application, visual injury rating 0-100", "details": "10 days", "outline": "as §1"}, "[9]": {"tested_on": "ragweed (common ragweed, Ambrosia artemisiifolia)", "experiment": "Test A postemergence application, visual injury rating 0-100", "details": "10 days", "outline": "as §1"}, "[10]": {"tested_on": "barnyardgrass (Echinochloa crus-galli)", "experiment": "Test A postemergence application, visual injury rating 0-100", "details": "10 days", "outline": "as §1"}, "corn (Zea mays) [11]": {"tested_on": "corn (Zea mays)", "experiment": "Test A postemergence application, visual injury rating 0-100", "details": "10 days", "outline": "as §1"}, "soybean (Glycine max) [12]": {"tested_on": "soybean (Glycine max)", "experiment": "Test A postemergence application, visual injury rating 0-100", "details": "10 days", "outline": "as §1"}, "[13]": {"tested_on": "ryegrass, Italian (italian ryegrass, Lolium multiflorum)", "experiment": "Test A postemergence application, visual injury rating 0-100", "details": "10 days", "outline": "as §1"}, "[14]": {"tested_on": "barnyardgrass (Echinochloa crusgalli)", "experiment": "Test B flooded paddy test, visual plant response rating 0-100", "details": "250 g ai/ha, Flood, applied to paddy water, evaluated after 13 days", "outline": "(§2)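 Plants were grown to the 2-leaf stage, then pots were flooded to 3 cm above the soil and test compounds were applied directly into the paddy water. Water depth was held there throughout; after 13 days in a greenhouse, injury was scored visually against untreated controls.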"}, "rice (Oryza sativa)": {"tested_on": "rice (Oryza sativa)", "experiment": "Test B flooded paddy test, visual plant response rating 0-100", "details": "250 g ai/ha, Flood, applied to paddy water, evaluated after 13 days", "outline": "as §2"}, "[15]": {"tested_on": "sedge, umbrella (small-flower umbrella sedge, Cyperus difformis)", "experiment": "Test B flooded paddy test, visual plant response rating 0-100", "details": "250 g ai/ha, Flood, applied to paddy water, evaluated after 13 days", "outline": "as §2"}, "[16]": {"tested_on": "ducksalad (Heteranthera limosa)", "experiment": "Test B flooded paddy test, visual plant response rating 0-100", "details": "250 g ai/ha, Flood, applied to paddy water, evaluated after 13 days", "outline": "as §2"}, "[17]": {"tested_on": "palmer (palmer amaranth, palmer pigweed, Amaranthus palmeri)", "experiment": "Test A preemergence soil spray, visual injury rating 0-100", "details": "10 days, 0 = no effect, 100 = complete control", "outline": "as §1"}, "[18]": {"tested_on": "wheat (Triticum aestivum)", "experiment": "Test A preemergence soil spray, visual injury rating 0-100", "details": "10 days, 0 = no effect, 100 = complete control", "outline": "as §1"}, "[19]": {"tested_on": "green foxtail (Setaria viridis)", "experiment": "Test A preemergence soil spray, visual injury rating 0-100", "details": "10 days, 0 = no effect, 100 = complete control", "outline": "as §1"}, "[20]": {"tested_on": "oat, wild (wild oat, Avena fatua)", "experiment": "Test A preemergence soil spray, visual injury rating 0-100", "details": "10 days, 0 = no effect, 100 = complete control", "outline": "as §1"}, "kochia (Bassia scoparia) [21]": {"tested_on": "kochia (Bassia scoparia)", "experiment": "Test A preemergence soil spray, visual injury rating 0-100", "details": "10 days, 0 = no effect, 100 = complete control", "outline": "as §1"}, "[22]": {"tested_on": "blackgrass (Alopecurus myosuroides)", "experiment": "Test A preemergence soil spray, visual injury rating 0-100", "details": "10 days, 0 = no effect, 100 = complete control", "outline": "as §1"}, "[23]": {"tested_on": "ragweed (common ragweed, Ambrosia artemisiifolia)", "experiment": "Test A preemergence soil spray, visual injury rating 0-100", "details": "10 days, 0 = no effect, 100 = complete control", "outline": "as §1"}, "[24]": {"tested_on": "barnyardgrass (Echinochloa crus-galli)", "experiment": "Test A preemergence soil spray, visual injury rating 0-100", "details": "10 days, 0 = no effect, 100 = complete control", "outline": "as §1"}, "corn (Zea mays) [25]": {"tested_on": "corn (Zea mays)", "experiment": "Test A preemergence soil spray, visual injury rating 0-100", "details": "10 days, 0 = no effect, 100 = complete control", "outline": "as §1"}, "soybean (Glycine max) [26]": {"tested_on": "soybean (Glycine max)", "experiment": "Test A preemergence soil spray, visual injury rating 0-100", "details": "10 days, 0 = no effect, 100 = complete control", "outline": "as §1"}, "[27]": {"tested_on": "ryegrass, Italian (italian ryegrass, Lolium multiflorum)", "experiment": "Test A preemergence soil spray, visual injury rating 0-100", "details": "10 days, 0 = no effect, 100 = complete control", "outline": "as §1"}, "[28]": {"details": "31 g ai/ha, postemergence, 0 = no effect, 100 = complete control"}, "[29]": {"details": "Postemergence, 125 g ai/ha, 0 is no effect, 100 is complete control"}}, "data": [{"smiles": "CC1(C(=O)NC2C=CC(C(=O)OCC(F)(F)F)C2)CN(c2cc(F)cc(F)c2)C(=O)O1", "note": "(stereo not shown) [Compound 55]", "values": [{"measurement": "Horseweed plant response rating (0-100)", "setting": "[1]; [28]", "result": 70}, {"measurement": "Horseweed plant response rating (0 to 100 scale)", "setting": "[1]; [29]", "result": 80}, {"measurement": "Amaranth, Palmer plant response rating (0-100)", "setting": "[2]; [28]", "result": 80}, {"measurement": "Amaranth, Palmer / Pigweed, Palmer plant response rating (0 to 100 scale)", "setting": "[2]; [29]", "result": 90}, {"measurement": "Wheat plant response rating (0-100)", "setting": "[3]; [28]", "result": 80}, {"measurement": "Wheat plant response rating (0 to 100 scale)", "setting": "[3]; [29]", "result": 90}, {"measurement": "Foxtail, Green plant response rating (0-100)", "setting": "[4]; [28]", "result": 20}, {"measurement": "Foxtail, Green plant response rating (0 to 100 scale)", "setting": "[4]; [29]", "result": 80}, {"measurement": "Oat, Wild plant response rating (0-100)", "setting": "[5]; [28]", "result": 90}, {"measurement": "Oat, Wild plant response rating (0 to 100 scale)", "setting": "[5]; [29]", "result": 90}, {"measurement": "Galium plant response rating (0-100)", "setting": "[6]; [28]", "result": 80}, {"measurement": "Galium plant response rating (0 to 100 scale)", "setting": "[6]; [29]", "result": 80}, {"measurement": "Kochia plant response rating (0-100)", "setting": "kochia (Bassia scoparia) [7]; [28]", "result": 80}, {"measurement": "Kochia plant response rating (0 to 100 scale)", "setting": "kochia (Bassia scoparia) [7]; [29]", "result": 80}, {"measurement": "Blackgrass plant response rating (0-100)", "setting": "[8]; [28]", "result": 50}, {"measurement": "Blackgrass plant response rating (0 to 100 scale)", "setting": "[8]; [29]", "result": 100}, {"measurement": "Ragweed plant response rating (0-100)", "setting": "[9]; [28]", "result": 50}, {"measurement": "Ragweed plant response rating (0 to 100 scale)", "setting": "[9]; [29]", "result": 60}, {"measurement": "Barnyardgrass plant response rating (0-100)", "setting": "[10]; [28]", "result": 90}, {"measurement": "Barnyardgrass plant response rating (0 to 100 scale)", "setting": "[10]; [29]", "result": 100}, {"measurement": "Corn plant response rating (0-100)", "setting": "corn (Zea mays) [11]; [28]", "result": 100}, {"measurement": "Corn plant response rating (0 to 100 scale)", "setting": "corn (Zea mays) [11]; [29]", "result": 100}, {"measurement": "Soybean plant response rating (0-100)", "setting": "soybean (Glycine max) [12]; [28]", "result": 70}, {"measurement": "Soybean plant response rating (0 to 100 scale)", "setting": "soybean (Glycine max) [12]; [29]", "result": 70}, {"measurement": "Ryegrass, Italian plant response rating (0-100)", "setting": "[13]; [28]", "result": 90}, {"measurement": "Ryegrass, Italian plant response rating (0 to 100 scale)", "setting": "[13]; [29]", "result": 90}, {"measurement": "Plant response rating, Barnyardgrass (0 to 100 scale, 0 is no effect and 100 is complete control)", "setting": "[14]", "result": 90}, {"measurement": "Plant response rating, Rice (0 to 100 scale, 0 is no effect and 100 is complete control)", "setting": "rice (Oryza sativa)", "result": 15}, {"measurement": "Plant response rating, Sedge, Umbrella (0 to 100 scale, 0 is no effect and 100 is complete control)", "setting": "[15]", "result": 45}, {"measurement": "Plant response rating, Ducksalad (0 to 100 scale, 0 is no effect and 100 is complete control)", "setting": "[16]", "result": 85}, {"measurement": "Amaranth, Palmer plant response rating (0-100)", "setting": "[17]; 31 g ai/ha", "result": 20}, {"measurement": "Amaranth, Palmer plant response rating (0 to 100 scale)", "setting": "[17]; 125 g ai/ha", "result": 70}, {"measurement": "Wheat plant response rating (0-100)", "setting": "[18]; 31 g ai/ha", "result": 90}, {"measurement": "Wheat plant response rating (0 to 100 scale)", "setting": "[18]; 125 g ai/ha", "result": 100}, {"measurement": "Foxtail, Green plant response rating (0-100)", "setting": "[19]; 31 g ai/ha", "result": 0}, {"measurement": "Foxtail, Green plant response rating (0 to 100 scale)", "setting": "[19]; 125 g ai/ha", "result": 90}, {"measurement": "Oat, Wild plant response rating (0-100)", "setting": "[20]; 31 g ai/ha", "result": 60}, {"measurement": "Oat, Wild plant response rating (0 to 100 scale)", "setting": "[20]; 125 g ai/ha", "result": 90}, {"measurement": "Kochia plant response rating (0-100)", "setting": "kochia (Bassia scoparia) [21]; 31 g ai/ha", "result": 0}, {"measurement": "Kochia plant response rating (0 to 100 scale)", "setting": "kochia (Bassia scoparia) [21]; 125 g ai/ha", "result": 90}, {"measurement": "Blackgrass plant response rating (0-100)", "setting": "[22]; 31 g ai/ha", "result": 20}, {"measurement": "Blackgrass plant response rating (0 to 100 scale)", "setting": "[22]; 125 g ai/ha", "result": 90}, {"measurement": "Ragweed plant response rating (0-100)", "setting": "[23]; 31 g ai/ha", "result": 0}, {"measurement": "Ragweed plant response rating (0 to 100 scale)", "setting": "[23]; 125 g ai/ha", "result": 0}, {"measurement": "Barnyardgrass plant response rating (0-100)", "setting": "[24]; 31 g ai/ha", "result": 20}, {"measurement": "Barnyardgrass plant response rating (0 to 100 scale)", "setting": "[24]; 125 g ai/ha", "result": 100}, {"measurement": "Corn plant response rating (0-100)", "setting": "corn (Zea mays) [25]; 31 g ai/ha", "result": 20}, {"measurement": "Corn plant response rating (0 to 100 scale)", "setting": "corn (Zea mays) [25]; 125 g ai/ha", "result": 40}, {"measurement": "Soybean plant response rating (0-100)", "setting": "soybean (Glycine max) [26]; 31 g ai/ha", "result": 40}, {"measurement": "Soybean plant response rating (0 to 100 scale)", "setting": "soybean (Glycine max) [26]; 125 g ai/ha", "result": 80}, {"measurement": "Ryegrass, Italian plant response rating (0-100)", "setting": "[27]; 31 g ai/ha", "result": 80}, {"measurement": "Ryegrass, Italian plant response rating (0 to 100 scale)", "setting": "[27]; 125 g ai/ha", "result": 90}]}]}
